Laboratory results: patent publication US12186303B2, “Feed additive for cattle comprising n-acetyl-l-tryptophan as active ingredient” (CJ CHEILJEDANG CORPORATION, priority 2018, dated 2025)

Columns and labels:
Korean native steers [1] = assay: Feed intake and drinking water intake according to NALT feeding under heat stress conditions; assay type: in vivo, Korean native cattle; conditions: for Drinking water intake / Feed intake: 0.1% NALT
Excerpt: (§1) After grouping the animals by statistical analysis of initial body weights, the animals were bred in 1.0×1.5 m^2 individual pens during the experiment period. The feed was offered based on an amount of dry matter of daily total mixed ration (TMR) per head. After 7 days of an adaptation period for N-acetyl-L-tryptophan (NALT), a mixture of 0.1% N-acetyl-L-tryptophan (NALT) and the total mixed ration was fed to individual animals every morning at 8 a.m. for 6 weeks, and water was available ad libitum. Total amounts of L-tryptophan ingested by the control and the experimental group (NALT-treated group) by feeding NALT were 6.0 g/day/head and 18.2 g/day/head, respectively. The experiment was performed such that the NALT-treated group ingested 12.2 g/day/head more L-tryptophan than the control.
(§2) Meanwhile, results of growth performance analysis (body weight and average feed intake) and genetic analysis of loin tissue were obtained by statistically comparing and analyzing significant differences between the control and the NALT-treated group, and results of hematological analysis were obtained via statistical comparison and analysis depending on NALT treatment, experiment period (days), and interaction (treatment×days). These numerical values were expressed as average values, and a significance test was performed at the 5% level using Student's t-test by using a JMP 5.0 software package (SAS Institute Inc., Cary, NC, USA).
Temperature (° C.) and relative humidity (%) were recorded every day during a one-week adaptation period and a 6-week experiment period using a portable temperature and humidity meter. Average temperature and average relative humidity of each week were calculated using the temperature and relative humidity recorded during the total experiment period. In addition, a temperature-humidity index (THI) was calculated using temperature and humidity as shown in the following equation, and heat stress state may be diagnosed using the THI as an index feature of a heat load. THI=(1.8×T+32)−[0.55−0.0055×RH)×(1.8×T−26.8)
Feed intake of each sentinel animal was calculated by measuring a total amount of feed offered and an amount left over every day, and drinking water intake thereof was calculated every day by measuring a total amount of drinking water offered and an amount left over. Also, since the amount of feed left over was measured in pen units, DMI/BW % was calculated using the equation DMI/BW %=1.2425+1.9218×NEm−0.7259×(NEm)^2 and corrected using actual data of the experiment to calculate data for each of the two heads included in each pen. Analysis results of changes in feed intake and drinking water intake of the control and the NALT-treated group are shown in Table 12. […] Based thereon, it may be interpreted that the feed intake of cattle fed with NALT increased compared with the control without having increased drinking water intake even under heat stress conditions.

Korean native steers [2] = assay: Hematological analysis (VetScan HM2) under cold stress conditions; assay type: in vivo, Korean native cattle; parameters: MON / GRA / RBC / HGB / HCT / MCH / WBC / LYM: unit not given here; conditions: for GRA / HCT / HGB / LYM / MCH / MON / PLT / RBC / WBC: 0.1% NALT
Excerpt: as §1, with “NALT-treated” for “the experimental”, “group” for “group (NALT-treated group)”, “7.37” for “6.0”, “16.26” for “18.2”, “8.89” for “12.2”, “than that of” for “than”
as §2, with “using the” for “using a”
Blood was collected from a jugular vein of each sentinel animal before offering the feed at the starting day of the experiment (week 0), the mid-point of the experiment (week 4), and the final day of the experiment (week 7) and added to a vacutainer (Becton Dickinson, Franklin Lakes, NJ, USA). Hematological analysis was conducted using a VetScan HM2 Hematology System (Abaxis, Union City, CA, USA).

- All hematological indicators except for monocytes, compared with the control (Korean native steers [2]): No statistically significant difference
- Hematological indicator values relative to normal ranges (Korean native steers [2]): within normal ranges
- GRA (Korean native steers [2]; 0 wks): 3.01
- HCT (Korean native steers [2]; 0 wks): 35.00
- HGB (Korean native steers [2]; 0 wks): 13.60
- LYM (Korean native steers [2]; 0 wks): 5.55
- MCH (Korean native steers [2]; 0 wks): 12.83
- MON (Korean native steers [2]; 0 wks): 0.10
- PLT (Korean native steers [2]; 0 wks): 378.0
- RBC (Korean native steers [2]; 0 wks): 10.70
- WBC (Korean native steers [2]; 0 wks): 8.66
- GRA (Korean native steers [2]; 4 wks): 2.09
- HCT (Korean native steers [2]; 4 wks): 34.64
- HGB (Korean native steers [2]; 4 wks): 14.20
- LYM (Korean native steers [2]; 4 wks): 6.55
- MCH (Korean native steers [2]; 4 wks): 13.80
- MON (Korean native steers [2]; 4 wks): 0.06
- PLT (Korean native steers [2]; 4 wks): 476.8
- RBC (Korean native steers [2]; 4 wks): 10.34
- WBC (Korean native steers [2]; 4 wks): 8.70
- GRA (Korean native steers [2]; 7 wks): 3.29
- HCT (Korean native steers [2]; 7 wks): 33.88
- HGB (Korean native steers [2]; 7 wks): 13.68
- LYM (Korean native steers [2]; 7 wks): 5.98
- MCH (Korean native steers [2]; 7 wks): 13.70
- MON (Korean native steers [2]; 7 wks): 0.08
- PLT (Korean native steers [2]; 7 wks): 379.5
- RBC (Korean native steers [2]; 7 wks): 10.08
- WBC (Korean native steers [2]; 7 wks): 9.34
SMILES: CC(=O)N[C@@H](Cc1c[nH]c2ccccc12)C(=O)O [NALT, N-acetyl-L-tryptophan]
- Drinking water intake (Korean native steers [1]; THIavg < 80): 35.3 kg
- Feed intake (Korean native steers [1]; THIavg < 80): 13.7 kg
- Drinking water intake (Korean native steers [1]; THIavg > 80): 44.6 kg
- Feed intake (Korean native steers [1]; THIavg > 80): 13.5 kg
- Feed intake compared to the control (Korean native steers [1]; THI of 80 or more): significantly increased
- Average feed intake (Korean native steers [1]; entire experiment period): 13.62 kg/day
- Average feed intake compared with the control (Korean native steers [1]; entire experiment period): no statistically significant difference
- Drinking water intake compared with the control (Korean native steers [1]; regardless of THI conditions): statistically significant decrease
